The record followed here is patent publication US6403575B1, “3-Pyridyl enantiomers and their use as analgesics” (Abbott Laboratories, priority 1996, dated 2002).

Each structure is given as a SMILES string. Counter-ions that a name gives are not always drawn. Like-named read-outs stand apart in the source and are kept apart here.

The target of data set [1] is T1, neuronal nicotinic acetylcholine receptors (Rattus norvegicus, UniProt P09483+P12390).
T1 construct: crude synaptic membrane preparations from whole rat brain; from tissue; host or cells: whole rat brain, crude synaptic membranes
T1 sequence (P09483 31-630): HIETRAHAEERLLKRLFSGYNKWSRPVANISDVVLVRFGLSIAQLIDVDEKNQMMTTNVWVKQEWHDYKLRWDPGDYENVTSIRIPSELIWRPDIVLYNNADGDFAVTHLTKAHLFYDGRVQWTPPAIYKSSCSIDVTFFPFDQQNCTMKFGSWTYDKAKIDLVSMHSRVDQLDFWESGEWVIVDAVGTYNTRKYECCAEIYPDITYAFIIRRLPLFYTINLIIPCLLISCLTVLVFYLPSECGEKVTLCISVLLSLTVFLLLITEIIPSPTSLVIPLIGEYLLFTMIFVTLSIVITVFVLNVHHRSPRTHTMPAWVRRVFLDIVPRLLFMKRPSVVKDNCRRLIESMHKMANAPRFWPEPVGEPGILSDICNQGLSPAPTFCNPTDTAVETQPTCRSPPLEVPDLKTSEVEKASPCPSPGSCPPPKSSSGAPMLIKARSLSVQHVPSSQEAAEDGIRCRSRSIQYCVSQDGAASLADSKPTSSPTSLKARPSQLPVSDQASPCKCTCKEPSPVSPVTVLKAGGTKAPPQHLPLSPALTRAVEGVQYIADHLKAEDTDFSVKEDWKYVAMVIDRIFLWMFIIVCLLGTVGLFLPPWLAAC
T1 sequence (P12390 25-500): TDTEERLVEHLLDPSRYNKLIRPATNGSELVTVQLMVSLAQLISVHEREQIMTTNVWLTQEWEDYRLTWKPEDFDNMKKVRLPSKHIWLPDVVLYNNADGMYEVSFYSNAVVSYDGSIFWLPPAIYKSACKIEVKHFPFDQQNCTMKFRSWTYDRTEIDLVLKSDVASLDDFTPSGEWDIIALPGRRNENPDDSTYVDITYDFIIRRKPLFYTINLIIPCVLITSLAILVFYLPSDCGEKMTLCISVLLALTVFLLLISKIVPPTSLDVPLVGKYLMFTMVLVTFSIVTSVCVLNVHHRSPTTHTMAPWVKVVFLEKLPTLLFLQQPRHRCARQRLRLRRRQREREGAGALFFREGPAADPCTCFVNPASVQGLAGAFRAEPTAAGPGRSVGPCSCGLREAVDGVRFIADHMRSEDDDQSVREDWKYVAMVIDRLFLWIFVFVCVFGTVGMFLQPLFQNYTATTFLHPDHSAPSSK
The data set can be described thus: [3H]-cytisine binding to neuronal nicotinic acetylcholine receptors, whole rat brain membranes. The procedure:
Protocol for Determination of Nicotinic Acetylcholine Channel Receptor Binding Potencies of Ligands
Binding of [^3H]-cytisine ([^3H]-CYT) to neuronal nicotinic acetylcholine receptors was accomplished using crude synaptic membrane preparations from whole rat brain (Pabreza et al., Molecular Pharmacol., 1990, 39:9). Washed membranes were stored at −80° C. prior to use. Frozen aliquots were slowly thawed and resuspended in 20 volumes of buffer (containing: 120 mM NaCl, 5 mM KCl, 2 mM MgCl2, 2 mM CaCl2 and 50 mM Tris-Cl, pH 7.4 @4° C.). After centrifuging at 20,000×g for 15 minutes, the pellets were resuspended in 30 volumes of buffer. Homogenate (containing 125-150 μg protein) was added to triplicate tubes containing concentrations of test compound and [^3H]-CYT (1.25 nM) in a final volume of 500 μL. Samples were incubated for 60 minutes at 4° C., then rapidly filtered through Whatman GF/B filters presoaked in 0.5% polyethyleneimine using 3×4 mL of ice-cold buffer. The filters are counted in 4 mL of Ecolume® (ICN). Nonspecific binding was determined in the presence of 10 μM (−)-nicotine and values were expressed as a percentage of total binding.

Data set [2] deals with T2, peripheral ganglionic receptors (Homo sapiens, UniProt P30926+P32297).
T2 construct: Cells of the IMR-32 human neuroblastoma clonal cell line (ATCC, Rockville, Md.); host or cells: IMR-32 human neuroblastoma cells
T2 sequence (P32297 32-505): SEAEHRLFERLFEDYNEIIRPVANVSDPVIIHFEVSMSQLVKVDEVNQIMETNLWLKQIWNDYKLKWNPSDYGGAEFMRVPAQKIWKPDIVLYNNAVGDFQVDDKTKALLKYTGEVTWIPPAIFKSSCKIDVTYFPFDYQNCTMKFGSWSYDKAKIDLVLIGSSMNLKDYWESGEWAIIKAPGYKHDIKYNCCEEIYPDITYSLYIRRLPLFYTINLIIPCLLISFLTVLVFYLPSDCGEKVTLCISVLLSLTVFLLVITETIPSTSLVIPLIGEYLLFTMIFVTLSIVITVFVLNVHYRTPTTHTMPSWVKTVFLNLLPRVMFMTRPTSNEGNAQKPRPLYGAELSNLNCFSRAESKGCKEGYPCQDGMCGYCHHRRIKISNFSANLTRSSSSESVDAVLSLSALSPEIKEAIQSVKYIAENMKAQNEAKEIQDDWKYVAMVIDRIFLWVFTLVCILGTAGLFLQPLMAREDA
T2 sequence (P30926 22-498): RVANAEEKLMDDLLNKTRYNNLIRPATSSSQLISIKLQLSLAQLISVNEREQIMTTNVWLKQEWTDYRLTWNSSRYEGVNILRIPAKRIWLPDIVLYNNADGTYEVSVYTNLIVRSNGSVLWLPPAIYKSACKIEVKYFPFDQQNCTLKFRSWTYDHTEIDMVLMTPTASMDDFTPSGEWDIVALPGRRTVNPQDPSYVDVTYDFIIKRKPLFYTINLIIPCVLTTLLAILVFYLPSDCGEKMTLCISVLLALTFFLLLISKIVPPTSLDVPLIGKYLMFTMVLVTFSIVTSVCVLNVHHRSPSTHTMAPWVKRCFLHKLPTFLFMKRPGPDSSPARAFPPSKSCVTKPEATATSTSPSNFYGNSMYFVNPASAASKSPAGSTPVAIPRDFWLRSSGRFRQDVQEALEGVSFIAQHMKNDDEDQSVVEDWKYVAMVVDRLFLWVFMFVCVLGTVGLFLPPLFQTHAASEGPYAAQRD
The data set can be described thus: 86Rb+ flux activation in IMR-32 human neuroblastoma cells. The data set is classed as cell-based. Particulars: 1 μM compound, % of maximum response to (S)-nicotine. How it is done:
Protocol for the Determination of Ability of Nicotinic Acetylcholine Receptor Ligands to Activate Peripheral Ganglionic Receptors
Cells of the IMR-32 human neuroblastoma clonal cell line (ATCC, Rockville, Md.) were maintained in a log phase of growth according to established procedures. Experimental cells were seeded at a density of 500,000 cells/mL into a 24-well tissue culture dish. Plated cells were allowed to proliferate for at least 48 hours before loading with 2 μCi/mL of ^86Rb^+ (35 Ci/mmol) overnight at 37° C. The ^86Rb^+ efflux assays were performed according to previously published protocols (Lukas, R. J., J. Pharmacol. Exp. Ther., 265: 294-302, 1993) except serum-free Dulbecco's Modified Eagle's Medium was used during the ^86Rb^+ loading, rinsing, and agonist-induced efflux steps. Data reflect the activation of ^86Rb^+ flux at a concentration of 1 μM, and reflect the response as a percentage of the maximum response elicited by (S)-nicotine.

Data set [3] deals with mice. The data set can be described thus: Mouse Hot Plate Paradigm. The data set is classed as in vivo. Set-up: key to MED Hot plate model (μmol/kg, i.p.): NS = no significant effect observed relative to saline controls at the doses tested. Particulars: 30 minutes prior to testing, 55° C.; for minimal effective dose: ip, 0.5 h, i.p., read-out: MED Hot plate model (μmol/kg, i.p.).

Setting [4] is: [3H]-cytisine 1.25 nM, whole rat brain membranes, read-out: [3H] CYT Ki.

On to `Cc1ccc(OC[C@@H]2CCN2)cn1` (as salt: hydrochloride) [Example 20, 5-((2S)-Azetidinylmethyloxy)-2-methylpyridine dihydrochloride], for which the melting point – broadly, the temperature, or range, at which the solid turns liquid – was in the range of 141 to 144 °C. Consider `Clc1cc(OC[C@H]2CCN2)cnc1Cl` (as salt: hydrochloride) [Example 16, 5-((2R)-azetidinylmethoxy)-2,3-dichloropyridine hydrochloride], for which the melting point fell in the range of 166 to 168 °C. On to `Cl.O=[N+]([O-])c1cncc(OC[C@@H]2CCN2)c1` [Example 132, 5-nitro-3-(2-(S)-azetidinylmethoxy)pyridine hydrochloride], for which the melting point was 162 to 164 °C (dec.). The inhibition constant (Ki) (commonly the equilibrium dissociation constant of an inhibitor or competing ligand from its target) in data set [1] (setting [4]) stood at 330 pM. On to `Brc1cncc(OC[C@@H]2CCN2)c1` (as salt: hydrochloride) [Example 12, 5-((2S)-Azetidinylmethyloxy)-3-bromopyridine dihydrochloride], for which the melting point is 163 to 165 °C.

Turning to `Cc1cncc(OC[C@H]2CCN2)c1` [Example 14, 5-Methyl-3-((2R)-azetidinylmethyloxy)pyridine hydrochloride], in data set [1] (setting [4]), the Ki worked out at 180 pM. The “IMR-32 % maximal nicotine response at 1 μM Cmpd conc'n” value in data set [2] stood at 15%. Further, in data set [3], the minimal effective dose worked out at 62 µmol/kg. In the case of `C=Cc1cc(OC[C@@H]2CCN2)cnc1Cl` (as salt: hydrochloride) [Example 26, 2-Chloro-3-vinyl-5-((2S)-azetidinylmethoxy)pyridine hydrochloride], the melting point was 121 °C (dec.). In the case of `Fc1ccc(OC[C@@H]2CCN2)c(F)n1` (as salt: tosylate) [Example 116, 2.6-Difluoro-3-(2-(S)-azetidinylmethoxy)pyridine tosylate], the melting point lay within 140 to 143 °C.

For `C#Cc1cc(OC[C@@H]2CCN2)cnc1Cl` [Example 30, 2-Chloro-3-ethynyl-5-((2S)-azetidinylmethoxy)pyridine hydrochloride], the inhibitory constant (Ki) in data set [1] (setting [4]) came out at 40 pM. Also, the minimal effective dose in data set [3] was determined as 6.2 µmol/kg. On to `Cc1cc(OC[C@@H]2CCN2)cnc1F` (as salt: salt) [Example 32, 5-((2S)-azetidinylmethoxy)-3-methyl-2-fluoropyridine benzoate], for which the melting point lay in the range of 104 to 108 °C. Still for that read-out and setting: as for `CCCc1cc(OC[C@@H]2CCN2)cnc1Cl` (as salt: hydrochloride) [Example 28, 2-Chloro-3-propyl-5-((2S)-azetidinylmethoxy)pyridine hydrochloride], the figure is 148 to 150 °C; as for `Fc1cncc(OC[C@@H]2CCN2)c1` (as salt: hydrochloride) [Example 10, 5-((2S)-Azetidinylmethyloxy)-3-fluoropyridine dihydrochloride], 165 to 167 °C; as for `CCc1cc(OC[C@@H]2CCN2)cnc1F` (as salt: tosylate) [Example 126, 5-ethyl-6-fluoro-3-(2-(S)-azetidinylmethoxy)pyridine], 106 to 108 °C.

The molecule `CCc1cc(OC[C@@H]2CCN2)cnc1C` (as salt: hydrochloride) [Example 36, 6-Ethyl-6-methyl-3-((2S)-azetidinylmethoxy)pyridine hydrochloride] had a melting point of 150 to 153 °C. `COc1ccc(OC[C@H]2CCN2)cn1` [Example 119, 6-Methoxy-3-(2(R)-azetidinylmethoxy)pyridine]: the melting point lay in the range of 139 to 142 °C. For the same molecule, in data set [1] (setting [4]), the inhibition constant Ki worked out at 670 pM. For `Fc1ncc(OC[C@H]2CCN2)cc1Br` (as salt: tosylate) [Example 125, 5-bromo-6-fluoro-3-(2-(R)-azetidinylmethoxy)pyridine], the melting point was 238 to 240 °C. Take `Cl.Cl.c1cncc(OC[C@H]2CCN2)c1` [Example 6, (R)-3-(2-Azetidinylmethyloxy)pyridine dihydrochloride]: the Ki in data set [1] was determined as 40 pM. Also, the “MED Hot plate model (μmol/kg, i.p.)” value in data set [3] is reported as “NS”. As for `C=Cc1cncc(OC[C@@H]2CCN2)c1` (as salt: hydrochloride) [Example 22, 5-Vinyl-3-((2S)-Azetidinylmethyloxy)lpyridine dihydrochloride], the melting point fell in the range of 88 to 90 °C. On the same count and under the same terms, to `CCCc1cncc(OC[C@@H]2CCN2)c1` (as salt: hydrochloride) [Example 24, 5-Propyl-3-((2S)-azetidinylmethyloxy)lpyridine hydrochloride] belongs 79 to 80 °C; to `C=Cc1cc(OC[C@@H]2CCN2)cnc1C` (as salt: hydrochloride) [Example 35, 6-Methyl-5-vinyl-3-((2S)-azetidinylmethoxy)pyridine hydrochloride], 154 to 155 °C. Same read-out and setting: as for `Clc1cc(OC[C@@H]2CCN2)cnc1Cl` (as salt: hydrochloride) [Example 15, 5-((2S)-azetidinylmethoxy)-2,3-dichloropyridine hydrochloride], the figure is 181 to 182 °C; as for `Clc1ncc(OC[C@H]2CCN2)cc1Br` (as salt: hydrochloride) [Example 18, 5-((2R)-azetidinylmethoxy)-3-bromo-2-chloropyridine hydrochloride], 175 °C.

Take `Clc1ncc(OC[C@@H]2CCN2)cc1Br` (as salt: hydrochloride) [Example 17, 5-((2S)-azetidinylmethoxy)-3-bromo-2-chloropyridine hydrochloride]: the melting point lay within 168 to 169 °C.

As for `Cc1ccc(OC[C@H]2CCN2)cn1` (as salt: HCl) [Example 115, 6-Methyl-3-(2-(R)-azetidinylmethoxy)pyridine], the melting point was in the range of 134 to 136 °C. Take `Clc1cncc(OC[C@@H]2CCN2)c1` [Example 21, 5-((2S)-Azetidinylmethyloxy)-3-chloropyridine dihydrochloride]: the Ki in data set [1] (setting [4]) is 40 pM. In addition, in data set [3], the “MED Hot plate model (μmol/kg, i.p.)” value is listed as “NS”.

`Fc1cncc(OC[C@H]2CCN2)c1` (as salt: salt) [Example 11, 5-((2R)-Azetidinylmethyloxy)-3-fluoropyridine dibenzoate] had a melting point of 163 to 165 °C. `c1cncc(OC[C@@H]2CCN2)c1` [Example 7, (S)-3-(2-Azetidinylmethyloxy)pyridine dihydrochloride] gave an inhibition constant Ki in data set [1] of 40 pM. For the same molecule, the minimal effective dose in data set [3] stood at 6.2 µmol/kg. With `CCCc1cncc(OC[C@@H]2CCN2)c1` [Example 24, 5-Propyl-3-((2S)-azetidinylmethyloxy)lpyridine hydrochloride], the inhibition constant (Ki) in data set [1] (setting [4]) is 50 pM. Moreover, the minimal effective dose in data set [3] came out at 62 µmol/kg. With `Cc1cc(OC[C@@H]2CCN2)cnc1F` [Example 32, 5-((2S)-azetidinylmethoxy)-3-methyl-2-fluoropyridine benzoate], the Ki in data set [1] (setting [4]) came out at 100 pM. Moreover, the “MED Hot plate model (μmol/kg, i.p.)” value in data set [3] was “NS”. As for `C#Cc1cc(OC[C@@H]2CCN2)cnc1Cl` (as salt: hydrochloride) [Example 30, 2-Chloro-3-ethynyl-5-((2S)-azetidinylmethoxy)pyridine hydrochloride], the melting point is 90 °C (dec.). For the molecule `CCc1cncc(OC[C@@H]2CCN2)c1` [Example 23, 5-Ethyl-3-((2S)-Azetidinylmethyloxy)lpyridine hydrochloride], the Ki in data set [1] (setting [4]) was 110 pM. Moreover, in data set [3], the “MED Hot plate model (μmol/kg, i.p.)” value is “NS”.

For `Cc1ncc(OC[C@@H]2CCN2)cc1Br` [Example 34, 5-Bromo-6-methyl-3-((2S)-azetidinylmethoxy)pyridine dihydrochloride], in data set [1] (setting [4]), the Ki is 20 pM. For the same molecule, in data set [3], the minimal effective dose is 0.62 µmol/kg. `CCc1cc(OC[C@@H]2CCN2)cnc1Cl` (as salt: hydrochloride) [Example 27, 2-Chloro-3-ethyl-5-((2S)-azetidinylmethoxy)pyridine hydrochloride] showed a melting point of 102 to 104 °C.

On to `CCCCc1cc(OC[C@@H]2CCN2)cnc1Cl` (as salt: hydrochloride) [Example 29, 3-Butyl-2-chloro-5-((2S)-azetidinylmethoxy)pyridine hydrochloride], for which the melting point lay in the range of 88 to 90 °C. Still for that read-out and setting: as for `Fc1ncc(OCC2CCN2)cc1Cl` (stereo not shown) (as salt: tosylate) [Example 33, 5-((29)-azetidinylmethoxy)-3-chloro-2-fluoropyridine tosylate], the figure is 99 °C.
